Data as given in ChEMBL document CHEMBL5696442, “Discovery of type II inhibitors of TGFβ-activated kinase 1 (TAK1) and mitogen-activated protein kinase kinase kinase kinase 2 (MAP4K2)” (J Med Chem, 2015).
Active and inactive are the calls of the source. No cut-off for these calls is given here.

Legend:
[1] = biological target: MAP kinase-interacting serine/threonine-protein kinase 2 (Homo sapiens) (UniProt Q9HBH9); test: Inhibition of MKNK2 (unknown origin) at 10 uM by Ambit Kinomescan binding assay relative to control
[2] = biological target: Ribosomal protein S6 kinase alpha-2 (Homo sapiens) (UniProt Q15349); test: Inhibition of N-terminal RPS6KA2 kinase domain 1 (unknown origin) at 10 uM by Ambit Kinomescan binding assay
[3] = biological target: Ribosomal protein S6 kinase alpha-5 (Homo sapiens) (UniProt O75582); test: Inhibition of C-terminal RPS6KA5 kinase domain 2 (unknown origin) at 10 uM by Ambit Kinomescan binding assay
[4] = biological target: SRSF protein kinase 3 (Homo sapiens) (UniProt Q9UPE1); test: Inhibition of SRPK3 (unknown origin) at 10 uM by Ambit Kinomescan binding assay
[5] = biological target: TGF-beta receptor type-2 (Homo sapiens) (UniProt P37173); test: Inhibition of TGFBR2 (unknown origin) at 10 uM by Ambit Kinomescan binding assay
[6] = biological target: T1, Dual specificity mitogen-activated protein kinase kinase 6 (Homo sapiens) (UniProt P52564); test: Inhibition of MAP2K6 Lys1 labeling site in human A-375 cells at 0.5 uM by KiNativ Profiling analysis relative to control; format: cell-based
T1 sequence (whole entry): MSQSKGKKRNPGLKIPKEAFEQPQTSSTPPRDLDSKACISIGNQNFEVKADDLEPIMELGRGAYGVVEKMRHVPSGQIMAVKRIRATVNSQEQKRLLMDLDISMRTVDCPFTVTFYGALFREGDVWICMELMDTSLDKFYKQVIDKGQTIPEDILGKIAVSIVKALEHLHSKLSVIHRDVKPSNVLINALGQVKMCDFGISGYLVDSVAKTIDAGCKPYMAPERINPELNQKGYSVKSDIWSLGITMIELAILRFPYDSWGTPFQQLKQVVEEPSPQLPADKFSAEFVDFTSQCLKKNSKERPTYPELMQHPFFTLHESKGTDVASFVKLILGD

[7] = biological target: Serine/threonine-protein kinase Nek4 (Homo sapiens) (UniProt P51957); test: Inhibition of NEK4 Lys2 labeling site in human A-375 cells at 0.05 uM by KiNativ Profiling analysis relative to control; format: cell-based
[8] = biological target: Mitogen-activated protein kinase kinase kinase kinase 4 (Homo sapiens, UniProt O95819); test: Inhibition of ZC1/HGK K2 labeling site in human Huh-7 cells at 10 uM by KiNativ Profiling analysis relative to control; format: cell-based
[9] = biological target: Cyclin-dependent kinase 1 (Homo sapiens) (UniProt P06493); test: Inhibition of CDC2 K2 labeling site harbouring DLKPQNLLIDDKGTIK in human Huh-7 cells at 10 uM by KiNativ Profiling analysis relative to control; format: cell-based
[10] = biological target: T2, Scaffold protein ILK (Homo sapiens) (UniProt Q13418); test: Inhibition of ILK ACT labeling site in human Huh-7 cells at 10 uM by KiNativ Profiling analysis relative to control; format: cell-based
T2 sequence (whole entry): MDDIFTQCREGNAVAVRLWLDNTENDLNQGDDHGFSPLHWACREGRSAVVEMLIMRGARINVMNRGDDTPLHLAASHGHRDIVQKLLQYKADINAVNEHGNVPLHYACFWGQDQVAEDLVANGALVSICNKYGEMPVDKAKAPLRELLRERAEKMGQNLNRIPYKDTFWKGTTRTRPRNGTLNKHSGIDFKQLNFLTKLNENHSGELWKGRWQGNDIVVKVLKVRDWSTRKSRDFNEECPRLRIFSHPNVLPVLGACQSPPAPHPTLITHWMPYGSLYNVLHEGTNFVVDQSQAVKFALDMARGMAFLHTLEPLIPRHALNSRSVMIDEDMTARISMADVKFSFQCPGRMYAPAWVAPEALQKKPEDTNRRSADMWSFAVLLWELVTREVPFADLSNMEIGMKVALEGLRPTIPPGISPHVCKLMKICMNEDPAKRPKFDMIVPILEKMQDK

[11] = biological target: MAP/microtubule affinity-regulating kinase 3 (Homo sapiens) (UniProt P27448); test: Inhibition of MARK3 K1 labeling site in human Huh-7 cells at 10 uM by KiNativ Profiling analysis relative to control; format: cell-based
[12] = biological target: MAST1/MAST2 (Homo sapiens) (UniProt Q9Y2H9+Q6P0Q8); test: Inhibition of MAST1/2 K2 labeling site in human Huh-7 cells at 10 uM by KiNativ Profiling analysis relative to control; format: cell-based
[13] = biological target: Hepatocyte growth factor receptor (Homo sapiens) (UniProt P08581); test: Inhibition of MET ACT labeling site in human Huh-7 cells at 1 uM by KiNativ Profiling analysis relative to control; format: cell-based
[14] = biological target: RPS6KA1/RPS6KA2/RPS6KA3 (Homo sapiens) (UniProt P51812+Q15349+Q15418); test: Inhibition of RSK1/2/3 Domain 1 K2 labeling site harbouring DLKPENILLDEEGHIK in human Huh-7 cells at 1 uM by KiNativ Profiling analysis relative to control; format: cell-based
[15] = biological target: Ribosomal protein S6 kinase alpha-5 (Homo sapiens) (UniProt O75582); test: Inhibition of MSK1 domain1 ATP labeling site in human Huh-7 cell lysate at 1 uM by KiNativ Profiling analysis relative to control; format: subcellular
[16] = biological target: Serine/threonine-protein kinase 38 (Homo sapiens) (UniProt Q15208); test: Inhibition of NDR1 Lys1 labeling site in human Huh-7 cell lysate at 1 uM by KiNativ Profiling analysis relative to control; format: subcellular
[17] = biological target: cGMP-dependent protein kinase 2 (Homo sapiens) (UniProt Q13237); test: Inhibition of PRKG2 (unknown origin) at 1 uM by Ambit Kinomescan binding assay relative to control
[18] = biological target: NT-3 growth factor receptor (Homo sapiens) (UniProt Q16288); test: Inhibition of TRKC (unknown origin) at 1 uM by Ambit Kinomescan binding assay relative to control
[19] = biological target: Cyclin-dependent kinase 2 (Homo sapiens) (UniProt P24941); test: Inhibition of CDK2 Lys1 labeling site in human A-375 cells at 0.5 uM by KiNativ Profiling analysis relative to control; format: cell-based
[20] = biological target: T3, Serine/threonine-protein kinase STK11 (Homo sapiens) (UniProt Q15831); test: Inhibition of LKB1 Lys2 labeling site in human A-375 cells at 0.5 uM by KiNativ Profiling analysis relative to control; format: cell-based
T3 sequence (whole entry): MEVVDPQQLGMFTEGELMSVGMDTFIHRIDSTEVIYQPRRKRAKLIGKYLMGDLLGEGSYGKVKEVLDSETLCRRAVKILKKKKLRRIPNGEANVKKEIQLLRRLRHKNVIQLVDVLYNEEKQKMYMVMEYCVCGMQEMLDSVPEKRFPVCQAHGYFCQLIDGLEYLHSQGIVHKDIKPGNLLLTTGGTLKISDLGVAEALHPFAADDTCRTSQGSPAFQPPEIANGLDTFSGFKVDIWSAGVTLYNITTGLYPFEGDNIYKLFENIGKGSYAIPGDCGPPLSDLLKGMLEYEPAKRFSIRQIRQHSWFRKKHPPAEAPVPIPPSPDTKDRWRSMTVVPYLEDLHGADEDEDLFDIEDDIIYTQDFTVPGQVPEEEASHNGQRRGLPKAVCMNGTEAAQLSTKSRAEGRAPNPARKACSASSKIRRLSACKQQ

Chain of Ribosomal protein S6 kinase alpha-5 (Homo sapiens) (O75582 whole entry, looked up, the tested form may be a part): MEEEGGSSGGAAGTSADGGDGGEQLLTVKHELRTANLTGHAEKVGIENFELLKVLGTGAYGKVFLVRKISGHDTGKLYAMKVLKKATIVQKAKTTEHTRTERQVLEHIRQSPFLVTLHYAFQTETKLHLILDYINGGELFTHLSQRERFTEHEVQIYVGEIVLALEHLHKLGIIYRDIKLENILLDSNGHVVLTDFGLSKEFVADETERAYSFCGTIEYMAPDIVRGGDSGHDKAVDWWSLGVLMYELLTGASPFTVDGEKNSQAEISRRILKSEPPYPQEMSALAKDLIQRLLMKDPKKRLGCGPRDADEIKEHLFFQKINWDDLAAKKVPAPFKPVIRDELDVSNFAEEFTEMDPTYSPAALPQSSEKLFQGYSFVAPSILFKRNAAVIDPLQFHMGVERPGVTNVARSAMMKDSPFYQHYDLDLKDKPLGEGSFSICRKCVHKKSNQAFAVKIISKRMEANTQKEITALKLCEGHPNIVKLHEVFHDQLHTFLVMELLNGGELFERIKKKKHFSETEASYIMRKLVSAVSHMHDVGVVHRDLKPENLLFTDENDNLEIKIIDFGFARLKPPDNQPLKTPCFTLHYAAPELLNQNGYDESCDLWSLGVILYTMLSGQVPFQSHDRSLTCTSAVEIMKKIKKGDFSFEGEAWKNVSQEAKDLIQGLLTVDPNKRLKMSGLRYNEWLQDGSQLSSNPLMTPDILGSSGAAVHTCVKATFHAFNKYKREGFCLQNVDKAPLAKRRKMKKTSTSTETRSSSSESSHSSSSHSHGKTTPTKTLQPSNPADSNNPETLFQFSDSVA
Chain of Hepatocyte growth factor receptor (Homo sapiens) (P08581 whole entry): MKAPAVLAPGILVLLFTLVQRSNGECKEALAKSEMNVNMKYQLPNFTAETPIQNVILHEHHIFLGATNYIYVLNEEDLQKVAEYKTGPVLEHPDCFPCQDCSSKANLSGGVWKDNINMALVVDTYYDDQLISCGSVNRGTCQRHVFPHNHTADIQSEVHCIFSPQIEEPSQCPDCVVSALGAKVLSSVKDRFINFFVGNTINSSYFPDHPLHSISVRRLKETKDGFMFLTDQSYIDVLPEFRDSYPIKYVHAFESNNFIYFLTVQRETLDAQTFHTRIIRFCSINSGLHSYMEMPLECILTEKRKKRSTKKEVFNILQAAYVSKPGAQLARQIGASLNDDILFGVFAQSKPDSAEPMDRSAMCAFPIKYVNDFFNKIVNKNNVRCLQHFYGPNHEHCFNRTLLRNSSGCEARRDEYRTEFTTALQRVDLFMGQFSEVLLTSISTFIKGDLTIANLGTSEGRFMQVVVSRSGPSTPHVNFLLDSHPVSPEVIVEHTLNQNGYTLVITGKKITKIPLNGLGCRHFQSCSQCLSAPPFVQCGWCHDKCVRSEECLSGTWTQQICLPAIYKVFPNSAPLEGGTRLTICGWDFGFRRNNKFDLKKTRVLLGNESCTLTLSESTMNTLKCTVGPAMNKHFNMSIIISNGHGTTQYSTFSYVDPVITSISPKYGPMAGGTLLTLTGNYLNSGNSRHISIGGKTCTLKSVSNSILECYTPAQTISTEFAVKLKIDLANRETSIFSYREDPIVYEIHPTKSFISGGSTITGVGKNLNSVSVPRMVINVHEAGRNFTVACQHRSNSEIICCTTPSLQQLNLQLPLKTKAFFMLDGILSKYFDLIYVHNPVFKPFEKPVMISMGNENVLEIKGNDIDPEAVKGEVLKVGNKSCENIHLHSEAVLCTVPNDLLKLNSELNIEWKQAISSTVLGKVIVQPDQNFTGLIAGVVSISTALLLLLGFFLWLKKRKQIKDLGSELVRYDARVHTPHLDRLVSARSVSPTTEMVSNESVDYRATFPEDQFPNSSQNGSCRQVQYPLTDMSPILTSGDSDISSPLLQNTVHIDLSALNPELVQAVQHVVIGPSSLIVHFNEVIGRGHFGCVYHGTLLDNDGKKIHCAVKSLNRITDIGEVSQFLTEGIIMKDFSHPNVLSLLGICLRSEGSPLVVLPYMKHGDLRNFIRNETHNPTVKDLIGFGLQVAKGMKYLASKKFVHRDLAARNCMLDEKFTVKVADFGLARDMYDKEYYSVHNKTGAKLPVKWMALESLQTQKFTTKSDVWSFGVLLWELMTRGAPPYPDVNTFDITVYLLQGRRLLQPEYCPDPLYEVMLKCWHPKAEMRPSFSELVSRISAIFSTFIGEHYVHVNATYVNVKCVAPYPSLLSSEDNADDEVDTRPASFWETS
Chain of Serine/threonine-protein kinase Nek4 (Homo sapiens) (P51957 whole entry, looked up): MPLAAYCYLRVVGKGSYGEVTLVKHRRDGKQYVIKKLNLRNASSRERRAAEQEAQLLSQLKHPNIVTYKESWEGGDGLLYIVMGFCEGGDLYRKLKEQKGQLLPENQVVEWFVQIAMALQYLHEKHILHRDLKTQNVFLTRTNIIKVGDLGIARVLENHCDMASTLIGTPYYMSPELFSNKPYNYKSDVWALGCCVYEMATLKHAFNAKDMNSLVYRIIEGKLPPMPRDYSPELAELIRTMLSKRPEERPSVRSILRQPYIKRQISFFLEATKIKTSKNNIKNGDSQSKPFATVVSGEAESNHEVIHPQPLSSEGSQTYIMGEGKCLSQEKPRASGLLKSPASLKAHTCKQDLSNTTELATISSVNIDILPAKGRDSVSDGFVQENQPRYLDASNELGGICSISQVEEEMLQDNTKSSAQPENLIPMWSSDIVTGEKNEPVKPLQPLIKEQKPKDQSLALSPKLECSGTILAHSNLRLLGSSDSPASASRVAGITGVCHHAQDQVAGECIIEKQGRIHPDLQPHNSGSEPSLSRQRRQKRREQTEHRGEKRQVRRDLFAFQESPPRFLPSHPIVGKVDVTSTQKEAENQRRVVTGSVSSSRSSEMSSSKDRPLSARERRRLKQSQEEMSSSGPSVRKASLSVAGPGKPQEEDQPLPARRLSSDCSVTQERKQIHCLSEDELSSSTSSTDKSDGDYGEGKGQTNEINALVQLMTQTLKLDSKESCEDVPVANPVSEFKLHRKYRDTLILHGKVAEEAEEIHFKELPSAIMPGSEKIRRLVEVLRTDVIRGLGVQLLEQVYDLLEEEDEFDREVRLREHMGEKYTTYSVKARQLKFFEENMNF
Chain of NT-3 growth factor receptor (Homo sapiens) (Q16288 32-839 limits assumed): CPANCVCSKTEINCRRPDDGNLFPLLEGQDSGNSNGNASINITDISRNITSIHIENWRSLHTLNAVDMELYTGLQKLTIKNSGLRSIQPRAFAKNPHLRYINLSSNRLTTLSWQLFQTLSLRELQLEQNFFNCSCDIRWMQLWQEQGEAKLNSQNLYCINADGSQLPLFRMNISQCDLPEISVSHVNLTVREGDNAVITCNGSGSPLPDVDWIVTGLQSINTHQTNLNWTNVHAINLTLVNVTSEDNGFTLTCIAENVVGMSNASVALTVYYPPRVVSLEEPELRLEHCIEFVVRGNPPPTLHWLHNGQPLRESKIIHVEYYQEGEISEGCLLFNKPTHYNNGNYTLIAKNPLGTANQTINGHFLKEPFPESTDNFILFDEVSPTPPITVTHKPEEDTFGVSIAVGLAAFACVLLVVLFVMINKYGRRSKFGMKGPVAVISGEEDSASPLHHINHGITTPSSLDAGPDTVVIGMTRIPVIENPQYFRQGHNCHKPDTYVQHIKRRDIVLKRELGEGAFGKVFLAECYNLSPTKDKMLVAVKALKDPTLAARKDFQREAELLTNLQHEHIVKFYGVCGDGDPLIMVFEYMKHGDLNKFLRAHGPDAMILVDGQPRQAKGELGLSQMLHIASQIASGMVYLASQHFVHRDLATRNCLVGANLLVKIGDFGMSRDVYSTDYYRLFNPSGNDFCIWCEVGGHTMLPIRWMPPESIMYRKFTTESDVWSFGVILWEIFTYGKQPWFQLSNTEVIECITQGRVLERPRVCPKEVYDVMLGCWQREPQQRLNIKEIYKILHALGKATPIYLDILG
Chain of Cyclin-dependent kinase 1 (Homo sapiens) (P06493 whole entry, looked up): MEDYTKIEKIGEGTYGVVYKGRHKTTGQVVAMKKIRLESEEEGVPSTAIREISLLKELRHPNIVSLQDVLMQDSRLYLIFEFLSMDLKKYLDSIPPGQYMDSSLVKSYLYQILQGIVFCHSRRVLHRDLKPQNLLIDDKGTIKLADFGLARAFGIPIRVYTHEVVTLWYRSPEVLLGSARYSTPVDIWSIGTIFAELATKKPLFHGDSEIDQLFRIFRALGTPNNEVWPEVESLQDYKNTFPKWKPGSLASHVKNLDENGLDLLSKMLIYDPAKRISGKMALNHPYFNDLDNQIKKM
Chain of Serine/threonine-protein kinase 38 (Homo sapiens) (Q15208 2-465 limits assumed): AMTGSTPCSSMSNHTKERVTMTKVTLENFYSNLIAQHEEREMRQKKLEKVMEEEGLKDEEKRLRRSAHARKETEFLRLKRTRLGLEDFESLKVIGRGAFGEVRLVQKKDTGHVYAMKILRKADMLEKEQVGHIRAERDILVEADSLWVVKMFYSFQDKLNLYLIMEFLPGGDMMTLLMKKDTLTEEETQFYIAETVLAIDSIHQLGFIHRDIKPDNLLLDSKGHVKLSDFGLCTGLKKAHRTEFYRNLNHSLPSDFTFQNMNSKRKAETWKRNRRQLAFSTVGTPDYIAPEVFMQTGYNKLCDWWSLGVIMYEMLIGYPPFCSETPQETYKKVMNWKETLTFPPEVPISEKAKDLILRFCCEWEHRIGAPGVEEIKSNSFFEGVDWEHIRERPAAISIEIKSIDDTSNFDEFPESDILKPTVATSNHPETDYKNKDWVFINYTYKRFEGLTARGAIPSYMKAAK
Chain of MAP kinase-interacting serine/threonine-protein kinase 2 (Homo sapiens) (Q9HBH9 whole entry, looked up, the tested form may be a part): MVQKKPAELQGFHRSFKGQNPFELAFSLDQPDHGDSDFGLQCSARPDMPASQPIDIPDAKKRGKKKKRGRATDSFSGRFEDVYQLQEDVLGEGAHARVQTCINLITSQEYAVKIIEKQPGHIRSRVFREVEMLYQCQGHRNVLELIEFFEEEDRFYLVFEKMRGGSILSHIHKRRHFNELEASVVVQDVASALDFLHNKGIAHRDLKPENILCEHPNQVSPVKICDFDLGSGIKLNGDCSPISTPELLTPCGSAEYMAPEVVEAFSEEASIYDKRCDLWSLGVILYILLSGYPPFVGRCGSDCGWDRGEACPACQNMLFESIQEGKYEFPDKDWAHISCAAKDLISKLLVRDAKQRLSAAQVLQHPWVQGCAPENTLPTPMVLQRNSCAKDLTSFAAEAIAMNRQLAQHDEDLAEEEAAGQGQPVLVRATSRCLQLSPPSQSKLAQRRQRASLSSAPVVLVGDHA

CCN1CCN(Cc2ccc(NC(=O)c3ccc(C)c(Oc4ccnc5[nH]ccc45)c3)cc2C(F)(F)F)CC1
inhibition [1]: inactive
inhibition [2]: inactive
inhibition [3]: inactive
inhibition [4]: inactive
inhibition [5]: inactive
inhibition [6]: 4.5%
inhibition [7]: 15.2%
inhibition [8]: 72.6%
inhibition [9]: -1.7%
inhibition [10]: -1.1%
inhibition [11]: -7.2%
inhibition [12]: 17.6%
inhibition [13]: 15.5%
inhibition [14]: 5%

CNc1cc(Oc2cc(C(=O)Nc3cc(N4CCN(C)CC4)cc(C(F)(F)F)c3)ccc2C)ncn1
inhibition [15]: -8%
inhibition [16]: 9.5%

CCN1CCN(Cc2ccc(NC(=O)c3ccc(C)c(/C=C/c4cnc5[nH]ccc5c4OC)c3)cc2C(F)(F)F)CC1
inhibition [17]: 82%
inhibition [18]: 47%
inhibition [19]: 20.7%
inhibition [20]: 32.2%
